# Measured values reported in publication PMC7180572, “5-Alkylamino-N-phenylpyrazine-2-carboxamides: Design, Preparation, and Antimycobacterial Evaluation” (Molecules, 2020).
# Where two headings read alike, the source gives them in different places.
# Legend:
# [1] = test system: Staphylococcus epidermidis ATCC 12228, CCM 4418; test: Antibacterial microdilution broth method (EUCAST); assay type: cell-based; conditions: read-out: MIC SE
# [2] = test system: Klebsiella pneumoniae ATCC 10031, CCM 4415; test: Antibacterial microdilution broth method (EUCAST)
# HepG2 cells = test: HepG2 cytotoxicity, CellTiter 96 (MTS) assay; assay type: cell-based, human; conditions: for IC50: Homo sapiens, read-out: HepG2 IC50; for SI, selectivity index: IC50 (HepG2)/MIC against Mtb H37Ra (in µM)
# [3] = test system: Absidia corymbifera CCM 8077 (Lichtheimia corymbifera); test: Antifungal microdilution broth method (EUCAST); assay type: cell-based; conditions: read-out: MIC AC
# [4] = test system: Acinetobacter baumanii ATCC 19606, DSM 30007; test: Antibacterial microdilution broth method (EUCAST); assay type: cell-based; conditions: Acinetobacter baumannii
# [5] = test system: Pseudomonas aeruginosa ATCC 27853, CCM 3955; test: Antibacterial microdilution broth method (EUCAST); assay type: cell-based; conditions: read-out: MIC PA
# [6] = test system: Staphylococcus aureus spp.aureus ATCC 29213, CCM 4223; test: Antibacterial microdilution broth method (EUCAST); assay type: cell-based; conditions: read-out: MIC SA
# [7] = test system: Enterococcus faecalis ATCC 29212, CCM 4224; test: Antibacterial microdilution broth method (EUCAST); assay type: cell-based; conditions: read-out: MIC EF
# [8] = test system: Candida tropicalis ATCC 750, CCM 8264; test: Antifungal microdilution broth method (EUCAST); assay type: cell-based; conditions: read-out: MIC CT
# [9] = test system: Escherichia coli ATCC 25922, CCM 3954; test: Antibacterial microdilution broth method (EUCAST); assay type: cell-based; conditions: read-out: MIC EC
# [10] = test system: M. kansasii CNCTC My 235/80 (ATCC 12478); test: 96 well plate microdilution broth method with Alamar Blue; assay type: cell-based; conditions: Mycobacterium kansasii
# [11] = test system: Aspergillus fumigatus ATCC 204305; test: Antifungal microdilution broth method (EUCAST); assay type: cell-based; conditions: read-out: MIC AF
# [12] = test system: Candida parapsilosis ATCC 22019, CCM 8260; test: Antifungal microdilution broth method (EUCAST); assay type: cell-based; conditions: Lodderomyces parapsilosis
# [13] = test system: Staphylococcus aureus methicillin resistant ATCC 43300, CCM 4750; test: microbe, parasite or virus in culture; assay type: cell-based; conditions: ATCC 43300 / CCM 4750 / MRSA, read-out: MIC MRSA
# [14] = test system: Mycobacterium smegmatis DSM 43465 (ATCC 607); test: Microdilution broth, modified Microplate Alamar Blue Assay, whole cell growth inhibition; assay type: cell-based; conditions: Mycolicibacterium smegmatis, read-out: MIC Mycobacterium smegmatis
# [15] = test system: Candida krusei ATCC 6258, CCM 8271; test: Antifungal microdilution broth method (EUCAST); assay type: cell-based; conditions: Pichia kudriavzevii
# [16] = test system: Candida albicans ATCC 24433, CCM 8320; test: Antifungal microdilution broth method (EUCAST); assay type: cell-based
# [17] = test system: Trichophyton interdigitale ATCC 9533, CCM 8377; test: Antifungal microdilution broth method (EUCAST); assay type: cell-based; conditions: read-out: MIC TI
# [18] = test system: M. avium ssp. avium CNCTC My 80/72 (ATCC 15769); test: 96 well plate microdilution broth method with Alamar Blue; assay type: cell-based; conditions: Mycobacterium avium
# [19] = test system: Mycobacterium aurum DSM 43999 (ATCC 23366); test: Microdilution broth, modified Microplate Alamar Blue Assay, whole cell growth inhibition; assay type: cell-based; conditions: Mycolicibacterium aurum, read-out: MIC Mycobacterium aurum
# [20] = test system: Aspergillus flavus CCM 8363; test: Antifungal microdilution broth method (EUCAST); assay type: cell-based; conditions: read-out: MIC AFla
# [21] = test system: Mycobacterium tuberculosis H37Ra ITM-M006710 (ATCC 9431); test: Microdilution broth, modified Microplate Alamar Blue Assay, whole cell growth inhibition; assay type: cell-based; conditions: Mycobacterium tuberculosis, read-out: MIC Mtb H37Ra
# [22] = assay type: physicochemical
# Method: As a complementary test, final compounds were tested for in vitro activity against selected fungal and bacterial pathogens of clinical importance. The microdilution broth method was performed according to The European Committee on Antimicrobial Susceptibility Testing (EUCAST) instructions with slight modifications. The minimum inhibitory concentration was expressed in µM. Not all compounds were evaluated due to the fact of a problem with solubility which occurred for 18 samples. […] See Supplementary Materials for the list of tested strains, methodology, and full results.
# [23] = in vitro, Middlebrook 7H9 broth, resazurin
structure (smiles),measurement,setting,value
"CCCCCNc1cnc(C(=O)Nc2ccc(O)cc2)cn1 [Compound 3c, N-(4-hydroxyphenyl)-5-(pentylamino)pyrazine-2-carboxamide]",MIC,[1]; 24 h,> 125 µM
same,MIC,[1]; 48 h,> 125 µM
same,MIC KP,[2]; 24h,> 125 µM
same,MIC KP,[2]; 48h,> 125 µM
same,HepG2 IC50,"HepG2 cells; 24 h incubation, > means higher concentration not reproducible due to precipitation",above the tested range of concentrations
same,IC50,"HepG2 cells; HepG2, 24 h",> 500 µM
same,"SI, selectivity index",HepG2 cells,>38.4
same,MIC,"[3]; CCM8077, 24 h",> 125 µM
same,MIC,"[3]; CCM8077, 48 h",> 125 µM
same,MIC,[4]; 24h,> 125 µM
same,MIC,[4]; 48h,> 125 µM
same,MIC,[5]; 72 h,> 125 µM
same,MIC,[5]; 120 h,> 125 µM
same,MIC,[6]; 24 h,> 125 µM
same,MIC,[6]; 48 h,> 125 µM
same,MIC,[7]; 24 h,> 125 µM
same,MIC,[7]; 48 h,> 125 µM
same,MIC,[8]; 24 h,> 125 µM
same,MIC,[8]; 48 h,> 125 µM
same,MIC,[9]; 24 h,> 125 µM
same,MIC,[9]; 48 h,> 125 µM
same,MIC,"[10]; ATCC12478, pH 6.6, read-out: MIC Mycobacterium kansasii",12.5 µg/mL
same,MIC,"[11]; ATCC204305, 24 h",> 125 µM
same,MIC,"[11]; ATCC204305, 48 h",> 125 µM
same,MIC,"[12]; 24 h, read-out: MIC CP",> 125 µM
same,MIC,"[12]; 48 h, read-out: MIC CP",> 125 µM
same,MIC,[12]; read-out: MIC CP (Candida parapsilosis),> 125 µM
same,MIC,[13]; 24 h,> 125 µM
same,MIC,[13]; 48 h,> 125 µM
same,MIC,[14],31.2 µg/mL
same,MIC,"[15]; 24 h, read-out: MIC CK",> 125 µM
same,MIC,"[15]; 48 h, read-out: MIC CK",> 125 µM
same,MIC,[15]; read-out: MIC CK (Candida krusei),> 125 µM
same,MIC,"[16]; 24 h, read-out: MIC CA",62.5 µM
same,MIC,"[16]; 48 h, read-out: MIC CA",62.5 µM
same,MIC,[16]; read-out: MIC CA (Candida albicans),62.5 µM
same,melting point,,162.6 to 166.8 °C
same,MIC,[17]; 72 h,> 125 µM
same,MIC,[17]; 120 h,> 125 µM
same,MIC,"[18]; ATCC15769, pH 6.6, read-out: MIC Mycobacterium avium",50 µg/mL
same,MIC,[19],≥ 500 µg/mL
same,MIC,"[20]; CCM8363, 24 h",> 125 µM
same,MIC,"[20]; CCM8363, 48 h",> 125 µM
same,MIC,[21]; MIC converted to µM,13 µM
same,MIC,[21]; [23],3.91 µg/mL
"CCCCCCCCNc1cnc(C(=O)Nc2ccc(O)cc2)cn1 [Compound 3f, N-(4-hydroxyphenyl)-5-(octylamino)pyrazine-2-carboxamide]",IC50,"HepG2 cells; HepG2, 24 h incubation, > means higher concentration not reproducible due to precipitation",60.2 µM
same,"SI, selectivity index",HepG2 cells,6.6
same,MIC,"[10]; ATCC12478, Middlebrook 7H9 broth pH 6.6, read-out: MIC Mycobacterium kansasii",6.25 µg/mL
same,Solubility problem in antibacterial/antifungal testing,[22],did not dissolve in DMSO
same,MIC,[14]; [23],≥ 250 µg/mL
same,melting point,,142 to 143 °C
same,MIC,"[18]; ATCC15769, Middlebrook 7H9 broth pH 6.6, read-out: MIC Mycobacterium avium",> 100 µg/mL
same,MIC,[19]; [23],≥ 250 µg/mL
same,MIC,[21]; [23],3.13 µg/mL
